The values below come from patent US8747901B2 (Reata Pharmaceuticals, Inc., priority 2009, dated 2014).

The conditions of the data set: human, in vivo. On the procedure:
The synthetic triterpenoid bardoxolone methyl, also known as CDDO-Me and as “RTA 402,” has shown potent anti-inflammatory and anti-tumor properties in preclinical studies and in human clinical trials. […] In these studies bardoxolone methyl was administered orally in a crystalline form (“Form A”), once daily, at a variety of doses.

Turning to `COC(=O)[C@]12CCC(C)(C)C[C@H]1[C@H]1C(=O)C=C3[C@@]4(C)C=C(C#N)C(=O)C(C)(C)[C@@H]4CC[C@@]3(C)[C@]1(C)CC2` [Form A bardoxolone methyl, bardoxolone methyl], the oral bioavailability result was “relatively low oral bioavailability”. The tolerability profile entry (po) was “excellent tolerability profile with very few drug-related side effects”.
